Data reported in US8535928B2, “Protease and use thereof” (Osaka University, priority 2008, dated 2013).
Starred links: 1 amine or outer side, 2 acyl side, 3 side chain; linkers in the order of their positions; H or OH if unused. Residues, ends and D or L forms follow the SMILES beside them. *: point of attachment. pNA = O=[N+]([O-])c1ccc(N*)cc1; Suc = O=C(CCC(=O)[*:2])[*:1]

Target: T1, Thermococcus kodakaraensis KOD1 protease Tk-SP (mature subtilisin-like serine protease, SEQ ID NO: 1 or SEQ ID NO: 3) (Thermococcus kodakarensis, UniProt Q5JIZ5)
T1 construct: C-terminus at 562 or 563
T1 sequence (Q5JIZ5 137-562): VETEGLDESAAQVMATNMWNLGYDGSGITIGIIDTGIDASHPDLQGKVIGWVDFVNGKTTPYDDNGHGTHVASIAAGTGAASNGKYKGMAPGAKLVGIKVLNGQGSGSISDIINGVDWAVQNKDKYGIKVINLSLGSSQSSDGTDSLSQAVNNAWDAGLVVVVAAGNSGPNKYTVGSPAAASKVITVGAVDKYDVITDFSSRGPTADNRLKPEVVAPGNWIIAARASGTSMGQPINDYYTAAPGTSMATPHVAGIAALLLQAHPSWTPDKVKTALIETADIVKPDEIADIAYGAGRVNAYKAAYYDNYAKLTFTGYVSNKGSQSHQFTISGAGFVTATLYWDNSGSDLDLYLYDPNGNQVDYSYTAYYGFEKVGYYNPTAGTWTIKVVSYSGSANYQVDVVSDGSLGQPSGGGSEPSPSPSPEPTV
Experiment: Rate parameters of Tk-SP with Suc-AAPF-pNA (Michaelis-Menten)
Assay type: biochemical
Method: For examination of the pH dependence and the buffer dependence of the Tk-SP, enzyme reactions were performed using acetate buffers (pH 4.5, 5.0, 5.2, 5.4 and 5.6), MES buffers (pH 5.5, 6.0, 6.5 and 7.0), HEPES buffers (pH 7.0 and 7.5), Tris-HCl buffers (pH 7.0, 7.5, 8.0, 8.5 and 9.0), glycine-NaOH buffers (pH 8.5, 9.0, 9.5 and 10.0) and CAPS-NaOH buffers (pH 9.0, 9.5, 10.0, 10.5, 11.0 and 11.5) in the following procedure. 100 μl of a reaction mixture containing a 50 mM buffer and 2 mM Suc-AAPF-pNA (synthetic substrate) was incubated at 20° C. for 5 minutes. To this, 0.1 μg of the Tk-SP was added and the reaction mixture was further incubated at 20° C. for 10 minutes. The reaction was stopped by addition of 10 μl of acetic acid, and then the amount of p-nitroaniline produced from the synthetic substrate Suc-AAPF-pNA was determined by use of the absorption coefficient of 8900 M^−1 cm^−1 from the absorbance at 410 nm in an ultraviolet spectrophotometer (Beckman model DU640). The amount of the enzyme which catalyzes the production of 1 μmol of p-nitroaniline per minute was defined as “one unit.” The enzyme activity per milligram of the protein was defined as specific activity.
By use of, as a substrate, Suc-AAPF-pNA at various concentrations ranging from 0.01 to 2 mM, the specific activity of the Tk-SP was measured at 20 and 80° C. The measurement procedure was the same as that of Example 2. The obtained values were applied to the Michaelis-Menten equation for calculation of the rate parameters. For comparison, the specific activity of a known thermostable protease, Tk-subtilisin (see nonpatent literature 1) was similarly measured and then the rate parameters thereof were calculated.

C[C@H](NC(=O)CCC(=O)O)C(=O)N[C@@H](C)C(=O)N1CCC[C@H]1C(=O)N[C@@H](Cc1ccccc1)C(=O)Nc1ccc([N+](=O)[O-])cc1 [Suc-AAPF-pNA] (Suc-AAPF-pNA)
Km value relative to the Km value of Tk-subtilisin (80° C.): about 1/10
Km (80° C., substrate 0.01 to 2 mM): 100 to 1000 µM
Km value compared with that of Tk-subtilisin (at either temperature (20 and 80° C.)): smaller than that of Tk-subtilisin
